Results published in EPA's ToxValDB 9.5 (doi:10.2903/j.efsa.2012.2504).

Assays:
[1] = tested on: Anas platyrhynchos; conditions: oral, mortality
[2] = tested on: Colinus virginianus
[3] = tested on: Rattus norvegicus; conditions: for LD50: acute, mortality

| SMILES | LD50 ([1]; acute, unspecified) | LC50 ([1]; short-term, feed) | LC50 ([2]; acute, oral, diet, mortality) | LD50 ([2]; acute, oral, mortality) | NOEC ([2]; reproduction developmental, M) | LD50 ([3]; oral) | NOAEL ([3]; chronic, duration: 2 years, organ weight) | NOAEL ([3]; chronic, no effects) | NOAEL ([3]; subchronic, duration: 90 days, oral, histopathology: nonneoplastic) |
| --- | --- | --- | --- | --- | --- | --- | --- | --- | --- |
| COCCOC(=O)C(C#N)(C(=O)c1ccccc1C(F)(F)F)c1ccc(C(C)(C)C)cc1 (stereo not given) [Cyflumetofen] | > 2250 mg/kg | > 2380 mg/kg-day | > 1410 mg/kg-day | > 2000 mg/kg | ≥ 84.4 mg/kg-day | > 2000 mg/kg | 16.5 mg/kg-day | 34.6 mg/kg-day | 16.5 mg/kg-day |
| O=C(O)c1ccccc1C(F)(F)F [2-(Trifluoromethyl)benzoic acid] |  |  |  |  |  | > 2000 mg/kg |  |  |  |
